Test results taken from patent publication US20250011303A1, “SMALL MOLECULE MODULATORS OF IL-17A, METHODS OF MAKING AND METHODS OF USING THEREOF” (ASCLETIS BIOSCIENCE CO., LTD, priority 2023, published 2025).

Assays:
[1] = tested on: HEK-Blue IL-17 cells with rhIL-17A/A; experiment: HEK-Blue IL-17 cell assay (SEAP reporter, rhIL-17A/A stimulation); assay type: cell-based, human; conditions: Homo sapiens, HEK-Blue, 20 h, 20 hours incubation, absorbance at 405 nm, read-out: IC50 in HEK-Bule cell Assay
Procedure: • 1. The test Compounds were 3-fold serial diluted from 10 mM for 10 doses in DMSO. • 2. Prepare Reference Compounds (IL-17A-Inhibitor-1) were 3-fold serial diluted from 1 mM for 10 doses in DMSO. • 3. Prepare 1000× Positive control (1 mM IL-17A-Inhibitor-1) and 1000× vehicle control (100% DMSO).
• a) Cells were cultured as the HEK-Blue™ IL-17 technical data sheet recommended. HEK-Blue IL-17 cells were assayed in the exponential growth phase. • b) Aspirate growth medium and rinse cells twice with PBS to remove phenol red. • c) Resuspend cells in test medium to a proper concentration. • d) Only cells with viability greater than 90% were used for assays. • e) Transfer 25 nl of compound dilutions into 384-well assay plates using Echo655; • f) Seed 25 ul of HEK-Blue IL-17 cells at 8,000 cells/well into 384-well plate with rhIL-17A/A. • g) Cells were incubated for 20 hours at 37° C. under 5% CO2 atmosphere. • h) Transfer 2 ul of cells supernatant into per well of 384-well assay plates. • i) Add 20 ul of PNPP substrate. • j) Measure the Absorbance at 405 nm on Envision 2105 plate reader.
RLU signal (LUMcmpd) is calculated for each well.
% Inhibition is calculated as follow: […]
Signalave_pc: The average signal for the positive controls across the plate.
Signalave_vc: The average signal for negative controls across the plate.
Calculate IC50 and Plot effect-dose curve of cmpds:
Calculate IC50 by fitting % Inhibition values and log of compound concentrations to nonlinear regression (dose response−variable slope) with Graphpad 8.0.

[2] = Pharmacokinetics after oral gavage in fasted SD rats; assay type: in vivo; conditions: PO 10 mg per kilogram, plasma; for AUC: 0.25-24 hours; for bioavailability: rat, 10 mg per kilogram body weight
Procedure: Compounds of the present application were formulated in 40% PEG400/10% solutol/2% Tween 80/48% saline (v/v/v/v), and administered via oral gavage (PO) at the dosages of 10 mg per kilogram body weight in fasted SD rats. Plasma samples were collected at 0.25, 0.5, 1, 2, 4, 8, and 24 hours post dosing. Compound concentration was determined by LC-MS and pharmacokinetics parameters were calculated by WinNonlin 8.2 using Non-Compartmental Analysis model.

SMILES | IC50 [1] | AUC [2] | bioavailability [2]
CC(C)[C@H]1C[C@@H](C(=O)N2CC(F)(F)C2)c2ccc(NC(=O)[C@@H](NC(=O)c3ccnn3C(C)C)C(C3CC3)C3CC3)cc2O1 [Compound 161] | 43.3 nM | 9703 ng · h/m | 63.5%
CC(C)[C@H]1C[C@@H](C(=O)N2CC(F)(F)C2)c2ccc(NC(=O)[C@@H](NC(=O)c3ccnn3C(C)C)C3CCCCCC3)cc2O1 [Compound 204] | 46.6 nM | 18980 ng · h/m | 34.8%
CC(C)n1nccc1C(=O)N[C@H](C(=O)Nc1ccc2c(c1)OC1(CCC(F)(F)CC1)CC2C(=O)N1CC(F)(F)C1)C1CCCCCC1 (stereo partly shown) [Compound 225] | 44.9 nM | 7840 ng · h/m | 57.6%
CC(C)n1nccc1C(=O)N[C@H](C(=O)Nc1ccc2c(c1)OC(C1CC(F)(F)C1)CC2C(=O)N1CC(C(F)F)C1)C1CCCCCC1 (stereo partly shown) [Compound 232] | 77.1 nM | – | –
CC1CN(C(=O)N2CC(F)(F)C2)c2ccc(NC(=O)[C@@H](NC(=O)c3ccnn3C(C)C)C3CCCCCC3)cc2O1 (stereo partly shown) [Compound 235] | 71.9 nM | – | –
CC(C)n1nccc1C(=O)N[C@H](C(=O)Nc1cc2c(cc1F)C(C(=O)N1CC(F)(F)C1)CC1(CCOCC1)O2)C1CCCCCC1 (stereo partly shown) [Compound 236] | 14.9 nM | – | –
CC(C)n1nccc1C(=O)N[C@H](C(=O)Nc1cc2c(cc1F)C(C(=O)N1CC(F)(F)C1)CC1(CCOCC1)O2)C(C1CC1)C1CC1 (stereo partly shown) [Compound 237] | 26.1 nM | – | –
CC(C)n1nccc1C(=O)N[C@H](C(=O)Nc1ccc2c(c1)OC1(CCOCC1)CC2C(=O)N1CC(F)(F)C1)[C@H]1CC[C@H](C)CC1 (stereo partly shown) [Compound 239] | 31.1 nM | – | –
CC(C)n1nccc1C(=O)N[C@H](C(=O)Nc1ccc2c(c1)O[C@@H](C1CC(F)(F)C1)C[C@H]2C(=O)N1CC(F)(F)C1)C1CCC(F)(F)CC1 [Compound 240] | 48.3 nM | – | –
CC(C)n1nccc1C(=O)N[C@H](C(=O)Nc1ccc2c(c1)O[C@@H](C1CC(F)(F)C1)C[C@H]2C(=O)N1CC(F)(F)C1)[C@H]1CC[C@H](C)CC1 [Compound 241] | 15.9 nM | – | –
CC(C)n1nccc1C(=O)N[C@H](C(=O)Nc1ccc2c(c1)OC1(CCC(F)(F)CC1)CC2C(=O)N1CC(F)(F)C1)C(C1CC1)C1CC1 (stereo partly shown) [Compound 243] | 122 nM | – | –
CC(C)n1nccc1C(=O)N[C@H](C(=O)Nc1cc2c(cc1F)C(C(=O)N1CC(F)(F)C1)CC1(CCOCC1)O2)[C@H]1CC[C@H](C)CC1 (stereo partly shown) [Compound 244] | 13.5 nM | – | –
CC(C)n1nccc1C(=O)N[C@H](C(=O)Nc1cc2c(cc1F)[C@H](C(=O)N1CC(F)(F)C1)C[C@H](C1CC(F)(F)C1)O2)C(C1CC1)C1CC1 [Compound 245] | 22 nM | – | –
CC(C)n1nccc1C(=O)N[C@H](C(=O)Nc1ccc2c(c1)OC1(CCOCC1)CN2C(=O)N1CC(F)(F)C1)C(C1CC1)C1CC1 [Compound 246] | 18.2 nM | – | –
CC(C)C1CN(C(=O)N2CC(F)(F)C2)c2ccc(NC(=O)[C@@H](NC(=O)c3ccnn3C(C)C)C(C3CC3)C3CC3)cc2O1 (stereo partly shown) [Compound 247] | 30.4 nM | – | –
CC(C)n1nccc1C(=O)N[C@H](C(=O)Nc1cc2c(cc1F)[C@H](C(=O)N1CC(F)(F)C1)C[C@H](C1CC(F)(F)C1)O2)[C@H]1CC[C@H](C)CC1 [Compound 248] | 24.4 nM | 6093 ng · h/m | 70.7%
CC(C)n1nccc1C(=O)N[C@H](C(=O)Nc1cc2c(cc1F)[C@H](C(=O)N1CC(F)(F)C1)C[C@H](C1CC(F)(F)C1)O2)C1CCC(F)(F)CC1 [Compound 249] | 99.3 nM | – | –
